Results on one sequence are retold here after patent US20090275503A1, “DIASTEREOMERIC PEPTIDES FOR MODULATING T CELL IMMUNITY” (Yeda Research and Developent Co., Ltd. at the Weizman …, priority 2005, published 2009).

For the assay, the system named is BALB/c mice. As to the kind of experiment: Delayed type hypersensitivity to oxazalone in mice. Format: in vivo, mouse. How it is done: Groups of 5 female inbred BALB/c mice (The Jackson Laboratory) were sensitized on the shaved abdominal skin with 100 μl of 2% Oxazalone dissolved in acetone/olive oil [4:1 (vol/vol)] applied topically. DTH sensitivity was elicited 5 days later by challenging the mice with 20 μl of 0.5% Oxazalone in acetone/olive oil, 10 μl administered topically to each side of the ear. A constant area of the ear was measured immediately before challenge and 24 h after challenge with a Mitutoyo engineer's micrometer. The individual measuring ear swelling was unaware of the identity of the groups of mice. The DTH reaction is presented as the increment of ear swelling after challenge expressed as the mean±SEM in units of 10-2 mm. One hour after the challenge the mice's ears were treated topically with either all-L CP or with 2D-CP, both dissolved in 40 μl DMSO. The activity of the peptide treatments was compared to treatment with DMSO alone for “untreated mice” and Dexamethasone (100 μg/ml in saline) as a positive control.
To test whether TCR trans-membrane peptides could inhibit the elicitation of existing DTH reactivity, groups of naïve BALB/c mice were sensitized to 2% oxazalone. Five days later, the mice were challenged with 0.5% oxazalone administered to the ear. An hour after the challenge, the mice were treated with Dimethylsulfoxide (DMSO), all-L CP 150 μg (6 mg/kg) in DMSO, 2D-CP 150 μg (6 mg/kg) in DMSO, or dexamethasone, applied topically. On the following day, ear thickness was measured the swelling of DMSO treated mice (0.33±0.01 mm) was compared to that of mice treated with all-L CP (0.30±0.01 mm), 2D-CP (0.27±0.01 mm) and Dexamethasone (0.15±0.02 mm). […] Thus, 2D-CP can inhibit a T-cell mediated immune reaction in subjects already sensitized to the antigen.

Non-standard residues stand in square brackets, D forms with d. No end group written: not given here.

For the sequence “GLRILLLKV [2D-CP] (GL[dR]ILLL[dK]V-NH2; also: rhodamine label, position not given here) [CP diastereomer]”, the “Reduction in ear swelling compared with all-L CP” value (150 μg (6 mg/kg) topical in DMSO) is “twice the reduction”. This sequence yielded an Ear swelling (topical treatment 1 hr after oxazalone challenge, peptides 150 μg (6 mg/kg) in DMSO, measured following day) of 0.27±0.01 mm.
